The values that follow come from patent US4740233A, “Substituted 1,2,4-triazolo[1,5-a]-pyrimidine-2-sulfonamides and compositions and methods of controlling undesired vegetation and suppressing the nitrification of ammonium nitrogen in soil” (The Dow Chemical Company, priority 1986, dated 1988).

One experiment deals with rice. As to the kind of experiment: Control of aquatic plant species (paddy water). In kind it is in vivo, Oryza sativa. The settings on record: Oryza sativa, 216 h, nine days, read-out: Percent control; for pest or weed control at 250 g/ha: 0.25 Kg/Ha; for pest or weed control at 1000 g/ha: 1.0 Kg/Ha; for pest or weed control at 31 g/ha: 0.031 Kg/Ha; for pest or weed control at 500 g/ha: 0.5 Kg/Ha. On the procedure: (§1) In testing for such utility, the plant species to be tested were transplanted into 16 oz. containers into about 2 inches of soil when they were in the 1-2 inch stage and then flooded to a depth of about 1 inch. An acetone concentrate of the chemical to be tested was then injected into the paddy water, the volume injected being varied as desired to provide the desired concentration. Percent control was evaluated nine days after application.

Experiment [1] has as its system nitrification of ammonium nitrogen. As to the kind of experiment: Suppression of nitrification of ammonium nitrogen in soil. The settings on record: 27° C. An outline of the steps:
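Value is % NH4-N remaining after a two-week, 27° C incubation of treated soil held at 1/3 bar tension moisture. Nitrate was measured with an ion-selective electrode after extraction with ammonium sulfate solution and 10 min shaking.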

For the next experiment, the system named is sprangletop. As to the kind of experiment: Control of aquatic plant species (paddy water). In kind it is in vivo, Leptochloa filiformis. Particulars: Leptochloa filiformis, 216 h, nine days, read-out: Percent control; for pest or weed control at 250 g/ha: 0.25 Kg/Ha; for pest or weed control at 1000 g/ha: 1.0 Kg/Ha; for pest or weed control at 31 g/ha: 0.031 Kg/Ha; for pest or weed control at 500 g/ha: 0.5 Kg/Ha. On the procedure: as §1

Another experiment relates to yellow nutsedge. As to the kind of experiment: Control of aquatic plant species (paddy water). It counts as in vivo, Cyperus esculentus. The settings on record: Cyperus, 216 h, nine days, read-out: Percent control; for pest or weed control at 250 g/ha: 0.25 Kg/Ha; for pest or weed control at 1000 g/ha: 1.0 Kg/Ha; for pest or weed control at 31 g/ha: 0.031 Kg/Ha; for pest or weed control at 500 g/ha: 0.5 Kg/Ha. On the procedure:
as §1

A further experiment relates to barnyardgrass. As to the kind of experiment: Control of aquatic plant species (paddy water). The settings on record: Echinochloa crus-galli, 216 h, nine days, read-out: Percent control; for pest or weed control at 250 g/ha: 0.25 Kg/Ha; for pest or weed control at 1000 g/ha: 1.0 Kg/Ha; for pest or weed control at 31 g/ha: 0.031 Kg/Ha; for pest or weed control at 500 g/ha: 0.5 Kg/Ha. In kind it is in vivo, Echinochloa crusgalli. On the procedure:
as §1

Molecules are shown by their SMILES.

On to `Cc1cc(C)n2nc(S(=O)(=O)Nc3ccccc3C)nc2n1` [Compound 2], for which the pest or weed control at 2000 g/ha in the experiment with rice (2.0 Kg/Ha) was 97%; in the experiment on sprangletop (2.0 Kg/Ha), 99%; in the experiment on yellow nutsedge (2.0 Kg/Ha) it was 93%; in the experiment with barnyardgrass (2.0 Kg/Ha), 97%. In addition, the “% NH4-N Remaining After 2 Weeks Incubation” value in experiment [1] (0.01 ppm) worked out at 0%; in experiment [1] (0.1 ppm), 0%; in experiment [1] (1 ppm), 39%; in experiment [1] (10 ppm) it was 78%.

On to `CSc1ccccc1NS(=O)(=O)c1nc2nc(C)cc(C)n2n1` [Compound 9], for which the pest or weed control at 250 g/ha came out at 0% with rice, 80% in the experiment with sprangletop, 30% in the experiment on yellow nutsedge and 93% with barnyardgrass. Moreover, the pest or weed control at 1000 g/ha in the experiment with rice was 25%; in the experiment with sprangletop, 97%; in the experiment with yellow nutsedge, 85%; with barnyardgrass it was 99%. Moreover, the “% NH4-N Remaining After 2 Weeks Incubation” value in experiment [1] (0.01 ppm) is listed as 0%; in experiment [1] (0.1 ppm), 14%; in experiment [1] (1 ppm), 59%; in experiment [1] (10 ppm), 88%.

Regarding `Cc1cc(C)n2nc(S(=O)(=O)Nc3ccccc3S(=O)(=O)N(C)C)nc2n1` [Compound 15], the pest or weed control at 4000 g/ha in the experiment with rice (4.0 Kg/Ha) is 35%; in the experiment with sprangletop (4.0 Kg/Ha) it was 0%; in the experiment with yellow nutsedge (4.0 Kg/Ha), 70%; with barnyardgrass (4.0 Kg/Ha), 25%. Further, the “% NH4-N Remaining After 2 Weeks Incubation” value in experiment [1] (0.06 ppm) is reported as 1%; in experiment [1] (0.125 ppm), 0%; in experiment [1] (0.25 ppm) it was 23%; in experiment [1] (0.5 ppm), 42%; in experiment [1] (1 ppm) it was 54%.

Consider `Cc1cc(C)n2nc(S(=O)(=O)Nc3c(Br)cccc3Br)nc2n1` [Compound 38], for which the pest or weed control at 31 g/ha in the experiment on rice turned out to be 0%; in the experiment on sprangletop it was 0%; in the experiment with yellow nutsedge, 95%; in the experiment on barnyardgrass, 80%. Further, the pest or weed control at 250 g/ha came out at 97% with rice, 85% in the experiment on sprangletop, 97% in the experiment with yellow nutsedge and 99% in the experiment on barnyardgrass. The “% NH4-N Remaining After 2 Weeks Incubation” value in experiment [1] (0.01 ppm) was 46%; in experiment [1] (0.1 ppm), 68%; in experiment [1] (1 ppm), 84%; in experiment [1] (10 ppm), 94%.

`Cc1cc(C)n2nc(S(=O)(=O)Nc3c(C)cccc3[N+](=O)[O-])nc2n1` [Compound 49]: the pest or weed control at 16 g/ha in the experiment on rice (0.016 Kg/Ha) was 0%; in the experiment on sprangletop (0.016 Kg/Ha), 0%; in the experiment with yellow nutsedge (0.016 Kg/Ha), 95%; in the experiment on barnyardgrass (0.016 Kg/Ha), 50%. The pest or weed control at 500 g/ha in the experiment with rice was determined as 97%; with sprangletop, 97%; with yellow nutsedge it was 99%; in the experiment with barnyardgrass, 97%. Also, the “% NH4-N Remaining After 2 Weeks Incubation” value in experiment [1] (0.01 ppm) was determined as 42%; in experiment [1] (0.1 ppm) it was 77%; in experiment [1] (1 ppm), 90%; in experiment [1] (10 ppm), 99%.

As for `Cc1cc(C)n2nc(S(=O)(=O)Nc3c(Cl)cccc3I)nc2n1` [Compound 53], the pest or weed control at 31 g/ha in the experiment with rice was determined as 0%; in the experiment on sprangletop, 10%; with yellow nutsedge, 95%; with barnyardgrass, 80%. The pest or weed control at 500 g/ha is 99% with rice, 97% in the experiment with sprangletop, 99% in the experiment with yellow nutsedge and 99% with barnyardgrass. Further, the “% NH4-N Remaining After 2 Weeks Incubation” value in experiment [1] (0.01 ppm) turned out to be 47%; in experiment [1] (0.1 ppm), 71%; in experiment [1] (1 ppm), 85%; in experiment [1] (10 ppm) it was 93%.

Regarding `Cc1cc(C)n2nc(S(=O)(=O)Nc3c(F)cccc3Cl)nc2n1` [Compound 54], the pest or weed control at 500 g/ha is 97% with rice, 0% in the experiment with sprangletop, 95% with yellow nutsedge and 97% in the experiment on barnyardgrass. For the same molecule, the “% NH4-N Remaining After 2 Weeks Incubation” value in experiment [1] (0.06 ppm) amounted to 20%; in experiment [1] (0.25 ppm), 51%; in experiment [1] (1 ppm) it was 66%; in experiment [1] (4 ppm), 76%.

Regarding `O=S(=O)(Nc1c(Cl)cccc1Cl)c1nc2ncc(Cl)cn2n1` [Compound 114], the pest or weed control at 250 g/ha was 0% in the experiment with rice, 0% with sprangletop, 65% in the experiment on yellow nutsedge and 80% in the experiment with barnyardgrass. The pest or weed control at 1000 g/ha with rice stood at 70%; with sprangletop, 0%; in the experiment with yellow nutsedge it was 90%; in the experiment with barnyardgrass, 95%.
